Results reported in ChEMBL document CHEMBL3739426, “Synthesis and biological evaluation of novel 2-isoxazoline fused cyclopentane derivatives as potential antimicrobial and anticancer agents” (Medchemcomm, 2015).
In brackets after ≈: the same amount, converted by molar mass. Activity calls are given as the source filed them. The rule behind the calls is not given here.

How the values were obtained:
MCF7 [1] = test: Induction of apoptosis in human MCF7 cells assessed as formation of extremely condensed chromatin at 5 ug/ml after 48 hrs using acridine orange and ethidium bromide staining by light microscopic analysis; assay type: functional, cell-based
MCF7 [2] = test: Induction of apoptosis in human MCF7 cells assessed as formation of cell membrane blebbing at 10 ug/ml after 48 hrs using acridine orange and ethidium bromide staining by light microscopic analysis; assay type: functional, cell-based
MCF7 [3] = test: Induction of apoptosis in human MCF7 cells assessed as formation of nuclear fragmentation at 10 ug/ml after 48 hrs using acridine orange and ethidium bromide staining by light microscopic analysis; assay type: functional, cell-based
MCF7 [4] = test: Induction of apoptosis in human MCF7 cells assessed as formation of chromatin condensation at 10 ug/ml after 48 hrs using acridine orange and ethidium bromide staining by light microscopic analysis; assay type: functional, cell-based
MCF7 [5] = test: Induction of apoptosis in human MCF7 cells assessed dead cells at 5 ug/ml after 48 hrs using annexin V/propidium iodide staining by muse cell analyzer analysis (reference value: 1.04%); assay type: functional
MCF7 [6] = test: Induction of apoptosis in human MCF7 cells assessed live cells at 5 ug/ml after 48 hrs using annexin V/propidium iodide staining by muse cell analyzer analysis (reference value: 81.07%); assay type: functional
MCF7 [7] = test: Induction of apoptosis in human MCF7 cells assessed late apoptotic cells at 5 ug/ml after 48 hrs using annexin V/propidium iodide staining by muse cell analyzer analysis (reference value: 11.89%); assay type: functional
MCF7 [8] = test: Induction of apoptosis in human MCF7 cells assessed early apoptotic cells at 5 ug/ml after 48 hrs using annexin V/propidium iodide staining by muse cell analyzer analysis (reference value: 6%); assay type: functional
MCF7 [9] = test: Induction of apoptosis in human MCF7 cells assessed dead cells at 10 ug/ml after 48 hrs using annexin V/propidium iodide staining by muse cell analyzer analysis (reference value: 1.04%); assay type: functional
MCF7 [10] = test: Induction of apoptosis in human MCF7 cells assessed live cells at 10 ug/ml after 48 hrs using annexin V/propidium iodide staining by muse cell analyzer analysis (reference value: 81.07%); assay type: functional
MCF7 [11] = test: Induction of apoptosis in human MCF7 cells assessed late apoptotic cells at 10 ug/ml after 48 hrs using annexin V/propidium iodide staining by muse cell analyzer analysis (reference value: 11.89%); assay type: functional
MCF7 [12] = test: Induction of apoptosis in human MCF7 cells assessed early apoptotic cells at 10 ug/ml after 48 hrs using annexin V/propidium iodide staining by muse cell analyzer analysis (reference value: 6%); assay type: functional
MCF7 [13] = test: Cell cycle arrest in human MCF7 cells assessed as accumulation at G0/G1 phase at 5 ug/ml after 48 hrs using propidium iodide staining by flow cytometry analysis (reference value: 47.3%); assay type: functional
MCF7 [14] = test: Cell cycle arrest in human MCF7 cells assessed as accumulation at S phase at 5 ug/ml after 48 hrs using propidium iodide staining by flow cytometry analysis (reference value: 12.7%); assay type: functional
MCF7 [15] = test: Cell cycle arrest in human MCF7 cells assessed as accumulation at G2/M phase at 5 ug/ml after 48 hrs using propidium iodide staining by flow cytometry analysis (reference value: 25.8%); assay type: functional
MCF7 [16] = test: Cell cycle arrest in human MCF7 cells assessed as accumulation at G0/G1 phase at 10 ug/ml after 48 hrs using propidium iodide staining by flow cytometry analysis (reference value: 47.3%); assay type: functional
MCF7 [17] = test: Cell cycle arrest in human MCF7 cells assessed as accumulation at S phase at 10 ug/ml after 48 hrs using propidium iodide staining by flow cytometry analysis (reference value: 12.7%); assay type: functional
MCF7 [18] = test: Cell cycle arrest in human MCF7 cells assessed as accumulation at G2/M phase at 10 ug/ml after 48 hrs using propidium iodide staining by flow cytometry analysis (reference value: 25.8%); assay type: functional
MCF7 [19] = test: Induction of apoptosis in human MCF7 cells assessed as decrease of mitochondrial membrane potential after 12 hrs using JC-1 dye by fluorescence microscopic analysis; assay type: functional, cell-based
Bacillus subtilis = test: Antimicrobial activity against Bacillus subtilis by cup plate diffusion method; assay type: functional
Priestia megaterium = test: Antimicrobial activity against Bacillus megaterium by cup plate diffusion method; assay type: functional
Escherichia coli = test: Antimicrobial activity against Escherichia coli by cup plate diffusion method; assay type: functional
Pseudomonas sp. = test: Antimicrobial activity against Pseudomonas sp. by cup plate diffusion method; assay type: functional
Candida albicans = test: Antimicrobial activity against Candida albicans by cup plate diffusion method; assay type: functional
HT-29 = test: Cytotoxicity against human HT-29 cells after 48 hrs by MTT assay; assay type: functional, cell-based; details: HT-29, 48 h
HeLa = test: Cytotoxicity against human HeLa cells after 48 hrs by MTT assay; assay type: functional, cell-based
MCF7 [20] = test: Cytotoxicity against human MCF7 cells after 48 hrs by MTT assay; assay type: functional, cell-based; details: MCF7, 48 h
A549 = test: Cytotoxicity against human A549 cells after 48 hrs by MTT assay; assay type: functional, cell-based; details: A549, 48 h
[21] = Cytotoxicity against human PC3 cells after 48 hrs by MTT assay; assay type: functional, cell-based; details: PC-3, 48 h
MCF7 [22] = test: Induction of apoptosis in human MCF7 cells assessed as formation of intact nuclei at 5 ug/ml after 48 hrs using acridine orange and ethidium bromide staining by light microscopic analysis; assay type: functional, cell-based

Structure (SMILES): OC[C@@H]1C[C@H](CO)[C@@H]2C(c3ccc4ccccc4c3)=NO[C@H]12
- Activity (MCF7 [1]): Active
- Activity (MCF7 [2]): Active
- Activity (MCF7 [3]): Active
- Activity (MCF7 [4]): Active
- Activity (MCF7 [5]): 4.06%
- Activity (MCF7 [6]): 55.08%
- Activity (MCF7 [7]): 15.91%
- Activity (MCF7 [8]): 24.94%
- Activity (MCF7 [9]): 0.61%
- Activity (MCF7 [10]): 32.21%
- Activity (MCF7 [11]): 18.85%
- Activity (MCF7 [12]): 48.32%
- Activity (MCF7 [13]): 44.7%
- Activity (MCF7 [14]): 14.9%
- Activity (MCF7 [15]): 24.8%
- Activity (MCF7 [16]): 35.7%
- Activity (MCF7 [17]): 27.5%
- Activity (MCF7 [18]): 22.6%
- Activity (MCF7 [19]): Dose-dependent effect
- MIC (Bacillus subtilis): 26 µg/mL (≈ 87.4 µM)
- MIC (Priestia megaterium): 26 µg/mL (≈ 87.4 µM)
- MIC (Escherichia coli): > 100 µg/mL
- MIC (Pseudomonas sp.): > 100 µg/mL
- MIC (Candida albicans): > 100 µg/mL
- IC50 (HT-29): 14.3 µg/mL (≈ 48.1 µM)
- IC50 (HeLa): 24.5 µg/mL (≈ 82.4 µM)
- IC50 (MCF7 [20]): 11.5 µg/mL (≈ 38.7 µM)
- IC50 (A549): > 50 µg/mL
- IC50 [21]: 48.4 µg/mL (≈ 163 µM)
- Activity (MCF7 [22]): Active
